The results in this text go back to patent publication US20100076015A1, “Aminopyridine Derivatives” (VANTIA LIMITED, priority 2008, published 2010).

In this experiment the target is T1, Human KLK1 (Homo sapiens, UniProt P06870).
T1 construct: purchased Callbiochem (Calbiochem)
Put plainly: Determination of the IC50 for KLK1 (fluorogenic substrate H-DVal-Leu-Arg-AFC). The class given is biochemical. The following applies: 37° C. The protocol: Determination of the IC50 for KLK1
KLK1 inhibitory activity in vitro was determined using standard published methods (see e.g. Johansen et al., Int. J. Tiss. Reac. 1986, 8, 185; Shori et al., Biochem. Pharmacol., 1992, 43, 1209; Stürzebecher et al., Biol. Chem. Hoppe-Seyler, 1992, 373, 1025). Human KLK1 (Callbiochem) was incubated at 37° C. with the fluorogenic substrate H-DVal-Leu-Arg-AFC and various concentrations of the test compound. Residual enzyme activity (initial rate of reaction) was determined by measuring the change in optical absorbance at 410 nm and the IC50 value for the test compound was determined.

T1 sequence (P06870 25-262): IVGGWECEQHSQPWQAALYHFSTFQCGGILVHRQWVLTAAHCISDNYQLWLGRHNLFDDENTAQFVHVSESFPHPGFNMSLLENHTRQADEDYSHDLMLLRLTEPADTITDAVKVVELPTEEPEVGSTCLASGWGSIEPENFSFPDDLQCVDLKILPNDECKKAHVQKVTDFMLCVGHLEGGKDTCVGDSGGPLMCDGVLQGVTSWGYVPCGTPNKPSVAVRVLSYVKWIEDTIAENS

Usually IC50 stands for the concentration at which inhibition is half-maximal. Low readings indicate greater potency in that assay, high ones weaker potency in that assay. `CCN(CC)[C@@H](CC(=O)OC)C(=O)N[C@@H](Cc1ccc(F)c(F)c1)C(=O)NCc1ccc(N)nc1` [Example 364, (S)—N-[(S)-1-[(6-Amino-pyridin-3-ylmethyl)-carbamoyl]-2-(3,4-difluoro-phenyl)-ethyl]-3-diethylamino-succinamic acid methyl ester] displayed an IC50 of 43.7 nM. Next, `CCCCN(C)[C@@H](C)C(=O)N[C@@H](Cc1ccc(F)c(F)c1)C(=O)NCc1ccc(N)nc1` [Example 347, (S)—N-[(S)-1-[(6-Amino-pyridin-3-ylmethyl)-carbamoyl]-2-(3,4-difluoro-phenyl)-ethyl]-2-(butyl-methyl-amino)-propionamide]: 24.5 nM; `CCC(C)[C@@H](NC)C(=O)N[C@H](Cc1ccc(Cl)c(Cl)c1)C(=O)NCc1ccc(N)nc1C` (stereo partly drawn) [Example 188, (2R)-3-Methyl-2-methylamino-pentanoic acid [(R)-1-[(6-amino-2-methyl-pyridin-3-ylmethyl)-carbamoyl]-2-(3,4-dichloro-phenyl)-ethyl]-amide]: 1.2 nM.

The molecule `Nc1ccc(CNC(=O)[C@H](Cc2ccc(F)c(F)c2)NC(=O)[C@H]2CCCN2Cc2ccccc2)cn1` [Example 140, (R)-1-Benzyl-pyrrolidine-2-carboxylic acid [(S)-1-[(6-amino-pyridin-3-ylmethyl)-carbamoyl]-2-(3,4-difluoro-phenyl)-ethyl]-amide] displayed an IC50 of 4.3 nM. The molecule `Nc1ccc(CNC(=O)[C@H](Cc2ccc(F)c(F)c2)NC(=O)[C@H]2CCCN2Cc2ccc(Cl)cc2)cn1` [Example 142, (R)-1-(4-Chloro-benzyl)-pyrrolidine-2-carboxylic acid [(S)-1-[(6-amino-pyridin-3-ylmethyl)-carbamoyl]-2-(3,4-difluoro-phenyl)-ethyl]-amide] registered an IC50 of 15 nM. `Nc1ccc(CNC(=O)[C@H](Cc2ccc(Cl)c(Cl)c2)NC(=O)[C@H]2CCCCN2)cn1` [Example 63, (R)-Piperidine-2-carboxylic acid [(S)-1-[(6-amino-pyridin-3-ylmethyl)-carbamoyl]-2-(3,4-dichloro-phenyl)-ethyl]-amide] came in with an IC50 of 0.66 nM. `CCC(C)[C@H](C(=O)N[C@@H](Cc1cccc(F)c1)C(=O)NCc1ccc(N)nc1)N(C)C` (stereo partly drawn) [Example 377, (R)-2-Dimethylamino-3-methyl-pentanoic acid [(S)-1-[(6-amino-pyridin-3-ylmethyl)-carbamoyl]-2-(3-fluoro-phenyl)-ethyl]-amide] displayed an IC50 of 32.2 nM. `CC(C)N(C)[C@@H](Cc1ccccc1)C(=O)N[C@@H](Cc1ccc(F)cc1)C(=O)NCc1ccc(N)nc1` [Example 373, (S)—N-[(S)-1-[(6-Amino-pyridin-3-ylmethyl)-carbamoyl]-2-(4-fluoro-phenyl)-ethyl]-2-(isopropyl-methyl-amino)-3-phenyl-propionamide] yielded an IC50 of 25.7 nM.

The molecule `CN1CCC[C@@H]1C(=O)N[C@@H](Cc1ccc2ccccc2n1)C(=O)NCc1ccc(N)nc1` [Example 114, (R)-1-Methyl-pyrrolidine-2-carboxylic acid {(S)-1-[(6-amino-pyridin-3-ylmethyl)-carbamoyl]-2-quinolin-2-yl-ethyl}-amide] displayed an IC50 of 28.4 nM.

Turning to `CCC(C)[C@@H](NC)C(=O)N[C@@H](Cc1cccc(C(F)(F)F)c1)C(=O)NCc1ccc(N)nc1` (stereo partly drawn) [Example 42, (R)-3-Methyl-2-methylamino-pentanoic acid [(S)-1-[(6-amino-pyridin-3-ylmethyl)-carbamoyl]-2-(3-trifluoromethyl-phenyl)-ethyl]-amide], the midpoint of inhibition, the IC50, lay at 1.4 nM.

With `CC(C)N(C)[C@@H](CO)C(=O)N[C@@H](CC1CCCCC1)C(=O)NCc1ccc(N)nc1` [Example 388, (S)—N-{(S)-1-[(6-Amino-pyridin-3-ylmethyl)-carbamoyl]-2-cyclohexyl-ethyl}-3-hydroxy-2-(isopropyl-methyl-amino)-propionamide], the IC50 stood at 22.2 nM. The molecule `CC(C)C[C@H](NC(=O)[C@H](C)N(C)C(C)C)C(=O)NCc1ccc(N)nc1` [Example 427, (S)-2-[(S)-2-(Isopropyl-methyl-amino)-propionylamino]-4-methyl-pentanoic acid (6-amino-pyridin-3-ylmethyl)-amide] yielded a concentration for half-maximal inhibition (IC50) of 106 nM. Molecule `CCN(CC)[C@@H](CO)C(=O)N[C@@H](CC1CCCCC1)C(=O)NCc1ccc(N)nc1` [Example 389, (S)—N-{(S)-1-[(6-Amino-pyridin-3-ylmethyl)-carbamoyl]-2-cyclohexyl-ethyl}-2-diethylamino-3-hydroxy-propionamide] returned an IC50 of 42.9 nM. `C[C@@H](C(=O)N[C@@H](Cc1ccc(F)c(F)c1)C(=O)NCc1ccc(N)nc1)N(C)C` [Example 344, (S)—N-[(S)-1-[(6-Amino-pyridin-3-ylmethyl)-carbamoyl]-2-(3,4-difluoro-phenyl)-ethyl]-2-dimethylamino-propionamide] had an IC50 of 21.3 nM. `COc1ccc2[nH]c(C(=O)N[C@@H](Cc3cccc4ccccc34)C(=O)NCc3ccc(N)nc3)cc2c1` [Example 300, 5-Methoxy-1H-indole-2-carboxylic acid {(S)-1-[(6-amino-pyridin-3-ylmethyl)-carbamoyl]-2-naphthalen-1-yl-ethyl}-amide] displayed an IC50 of 7.4 nM. Next, `C[C@@H](C(=O)N[C@@H](Cc1ccc(C(F)(F)F)cc1)C(=O)NCc1ccc(N)nc1)N1CCCCC1` [Example 422, (S)—N-[(S)-1-[(6-Amino-pyridin-3-ylmethyl)-carbamoyl]-2-(4-trifluoromethyl-phenyl)-ethyl]-2-piperidin-1-yl-propionamide]: 3 nM; `CCC(C)[C@H](C(=O)N[C@@H](Cc1ccc(Cl)c(Cl)c1)C(=O)NCc1ccc(N)nc1)N(C)S(C)(=O)=O` (stereo partly drawn) [Example 8, (R)-2-(Methanesulfonyl-methyl-amino)-3-methyl-pentanoic acid [(S)-1-[(6-amino-pyridin-3-ylmethyl)-carbamoyl]-2-(3,4-dichloro-phenyl)-ethyl]-amide]: 1.7 nM. For `CC(C)N1CCC[C@@H]1C(=O)N[C@@H](Cc1ccccc1F)C(=O)NCc1ccc(N)nc1` [Example 125, (R)-1-Isopropyl-pyrrolidine-2-carboxylic acid [(S)-1-[(6-amino-pyridin-3-ylmethyl)-carbamoyl]-2-(2-fluoro-phenyl)-ethyl]-amide], the IC50 came out at 8.8 nM. Take `Cc1cccc(C[C@H](NC(=O)c2[nH]c(C)cc2C)C(=O)NCc2ccc(N)nc2C)c1` [Example 281, 3,5-Dimethyl-1H-pyrrole-2-carboxylic acid {(S)-1-[(6-amino-2-methyl-pyridin-3-ylmethyl)-carbamoyl]-2-m-tolyl-ethyl}-amide]: the IC50 turned out to be 1.8 nM. The result for `Cc1cc(C)c(C(=O)N[C@@H](CC2CCCCC2)C(=O)NCc2ccc(N)nc2)[nH]1` [Example 238, 3,5-Dimethyl-1H-pyrrole-2-carboxylic acid {(S)-1-[(6-amino-pyridin-3-ylmethyl)-carbamoyl]-2-cyclohexyl-ethyl}-amide] reads 35.2 nM.

In turn, `Nc1ccc(CNC(=O)[C@H](Cc2ccc(F)c(F)c2)NC(=O)c2cc3ccccc3[nH]2)cn1` [Example 325, 1H-Indole-2-carboxylic acid [(S)-1-[(6-amino-pyridin-3-ylmethyl)-carbamoyl]-2-(3,4-difluoro-phenyl)-ethyl]-amide] returned an IC50 of 21.3 nM. As for `Cc1cc[nH]c1C(=O)N[C@@H](Cc1ccc(F)cc1)C(=O)NCc1ccc(N)nc1` [Example 261, 3-Methyl-1H-pyrrole-2-carboxylic acid [(S)-1-[(6-amino-pyridin-3-ylmethyl)-carbamoyl]-2-(4-fluoro-phenyl)-ethyl]-amide], the IC50 is 13.2 nM. Consider `CNCC(=O)N[C@@H](Cc1ccc(Cl)c(Cl)c1)C(=O)NCc1ccc(N)nc1` [Example 69, (S)—N-(6-Amino-pyridin-3-ylmethyl)-3-(3,4-dichloro-phenyl)-2-(2-methylamino-acetylamino)-propionamide], for which half-maximal inhibition (IC50) was put at 42.2 nM. On to `CC(C)CN1CCC[C@@H]1C(=O)N[C@@H](Cc1ccc(F)c(F)c1)C(=O)NCc1ccc(N)nc1` [Example 133, (R)-1-Isobutyl-pyrrolidine-2-carboxylic acid [(S)-1-[(6-amino-pyridin-3-ylmethyl)-carbamoyl]-2-(3,4-difluoro-phenyl)-ethyl]-amide], for which the IC50 amounted to 16.5 nM.

Molecule `C[C@@H](C(=O)N[C@@H](CC1CCCCC1)C(=O)NCc1ccc(N)nc1)N(C)C` [Example 391, (S)—N-{(S)-1-[(6-Amino-pyridin-3-ylmethyl)-carbamoyl]-2-cyclohexyl-ethyl}-2-dimethylamino-propionamide] had an IC50 of 49.4 nM. The result for `Cc1ccc(-c2ccc(C(=O)N[C@@H](Cc3ccccc3Cl)C(=O)NCc3ccc(N)nc3)[nH]2)cc1` [Example 295, 5-p-Tolyl-1H-pyrrole-2-carboxylic acid [(S)-1-[(6-amino-pyridin-3-ylmethyl)-carbamoyl]-2-(2-chloro-phenyl)-ethyl]-amide] reads 192 nM; that for `CN1C[C@H](O)C[C@@H]1C(=O)N[C@@H](Cc1ccc(F)c(F)c1)C(=O)NCc1ccc(N)nc1` [Example 148, (2R,4R)-4-Hydroxy-1-methyl-pyrrolidine-2-carboxylic acid [(S)-1-[(6-amino-pyridin-3-ylmethyl)-carbamoyl]-2-(3,4-difluoro-phenyl)-ethyl]-amide], 55.7 nM.

In the case of `CCC(C)C(NC)C(=O)NC(Cc1c(F)c(F)c(F)c(F)c1F)C(=O)NCc1ccc(N)nc1` [Example 50, (R)-3-Methyl-2-methylamino-pentanoic acid {(S)-1-[(6-amino-pyridin-3-ylmethyl)-carbamoyl]-2-pentafluorophenyl-ethyl}-amide], the IC50 came out at 29.1 nM.
